# Measured values taken from the supplement of paper PMC10307832.
# Legend:
# Experiment in all cases: relative viability (nuclei count vs DMSO), 5 days (fraction); higher = more cells survive
# [1] = compound: CCN1CCC(CC1)N2C=C(N=N2)CNC3=CC4=C(C(=CN=C4C(=C3)Cl)C#N)NC5=CC(=C(C=C5)F)Cl [KIN001-266] + CCNC(=O)c1noc(-c2cc(C(C)C)c(O)cc2O)c1-c1ccc(CN2CCOCC2)cc1 [Luminespib] (partner 0.01 µM)
# How it was run: (§1)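 Relative viability is defined as nuclei in treated wells over nuclei in vehicle wells. Duplicate plates were run and medians reported. Lung cancer cell lines in 1536-well plates were dosed by pin tool one day after seeding, with one drug or with a fixed anchor-drug dose plus five library-drug doses (not always all listed) in √10 steps, and nuclei were counted after 5 days.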
# [2] = compound: CCN1CCC(CC1)N2C=C(N=N2)CNC3=CC4=C(C(=CN=C4C(=C3)Cl)C#N)NC5=CC(=C(C=C5)F)Cl [KIN001-266] + COc1cccc2cc(-c3nc([C@H]4CC[C@H](C(=O)O)CC4)n4ncnc(N)c34)[nH]c12 [OSI-027] (partner 0.5 µM)
# How it was run: as §1
# [3] = compound: CCN1CCC(CC1)N2C=C(N=N2)CNC3=CC4=C(C(=CN=C4C(=C3)Cl)C#N)NC5=CC(=C(C=C5)F)Cl [KIN001-266] + CS(=O)(=O)CCNCc1ccc(-c2ccc3ncnc(Nc4ccc(OCc5cccc(F)c5)c(Cl)c4)c3c2)o1 [Lapatinib] (partner 2 µM)
# How it was run: as §1
# [4] = compound: CCN1CCC(CC1)N2C=C(N=N2)CNC3=CC4=C(C(=CN=C4C(=C3)Cl)C#N)NC5=CC(=C(C=C5)F)Cl [KIN001-266] + C[C@]1(O)C[C@@H](c2nc(-c3ccc4ccc(-c5ccccc5)nc4c3)c3c(N)nccn32)C1 [Linsitinib] (partner 1 µM)
# How it was run: as §1
Cell Line,relative viability ([1]; first compound 0.08 µM),relative viability ([1]; first compound 0.253 µM),relative viability ([1]; first compound 0.8 µM),relative viability ([1]; first compound 2.53 µM),relative viability ([1]; first compound 8 µM),relative viability ([2]; first compound 0.08 µM),relative viability ([2]; first compound 0.253 µM),relative viability ([2]; first compound 0.8 µM),relative viability ([2]; first compound 2.53 µM),relative viability ([2]; first compound 8 µM),relative viability ([3]; first compound 0.08 µM),relative viability ([3]; first compound 0.253 µM),relative viability ([3]; first compound 0.8 µM),relative viability ([3]; first compound 2.53 µM),relative viability ([3]; first compound 8 µM),relative viability ([4]; first compound 0.08 µM),relative viability ([4]; first compound 0.253 µM),relative viability ([4]; first compound 0.8 µM),relative viability ([4]; first compound 2.53 µM),relative viability ([4]; first compound 8 µM)
H3255,0.909,0.945,0.935,0.847,0.912,0.555,0.618,0.52,0.542,0.606,0.346,0.219,0.283,0.251,0.294,0.841,1.03,0.884,0.841,0.713
EPLC-272H,0.253,0.268,0.323,0.181,0.176,0.306,0.303,0.242,0.249,0.264,1.03,0.982,1.05,0.732,0.797,1.26,1.34,0.842,1.15,1.16
PC-3 [JPC-3],0.719,0.673,0.613,0.744,0.669,0.764,0.776,0.688,0.755,0.751,0.451,0.447,0.422,0.414,0.499,0.99,0.934,0.941,0.958,0.896
NCI-H1793,0.231,0.436,0.171,0.194,0.196,0.332,0.254,0.231,0.258,0.204,0.646,0.643,0.81,0.485,0.561,0.806,0.829,0.75,0.879,1.03
EKVX,0.86,0.869,0.735,0.89,0.986,0.702,0.706,0.683,0.685,0.52,0.284,0.182,0.204,0.202,0.171,1.01,0.956,1.04,0.963,1.04
ChaGo-K-1,0.689,0.741,0.385,0.57,0.327,0.657,0.551,0.553,0.647,0.459,,,,,,,,,,
NCI-H23,0.201,0.185,0.182,0.239,0.226,0.651,0.618,0.541,0.398,0.485,1.22,1.12,1,0.991,0.845,0.626,0.604,0.591,0.691,0.55
EMC-BAC-2,1.27,1.25,1.11,1.18,1.25,0.456,0.448,0.373,0.419,0.365,0.906,0.907,0.879,0.917,0.942,0.781,0.792,0.877,0.86,0.862
LOU-NH91,0.35,0.312,0.286,0.337,0.391,0.753,0.76,0.434,0.608,0.546,0.854,0.751,0.711,0.689,0.745,0.968,0.952,0.652,0.896,0.73
LU99A,0.265,0.216,0.217,0.243,0.228,0.285,0.303,0.301,0.269,0.29,1.16,1.07,1.03,0.834,0.803,0.635,0.564,0.496,0.401,0.467
NCI-H1395,0.829,0.76,0.619,0.545,0.659,0.719,0.761,0.715,0.594,0.591,1.28,1.13,1.25,0.935,1.16,1.06,1.02,1.19,1.11,0.949
NCI-H460,0.0348,0.0385,0.0335,0.0269,0.0404,0.623,0.667,0.781,0.605,0.574,0.891,0.933,1.13,1,0.954,0.673,0.853,0.899,0.762,0.539
201T,1.05,1.05,1,1.04,1.06,0.786,0.53,0.8,0.776,0.735,1.05,0.981,0.992,1.07,1.05,1.08,1.04,0.984,1.01,1.15
NCI-H1944,0.73,0.771,0.708,0.744,0.68,0.46,0.473,0.373,0.44,0.343,0.826,0.895,0.774,0.816,0.828,1.3,1.23,1.14,1.29,1.22
NCI-H2405,0.743,0.712,0.628,0.701,0.516,0.652,0.671,0.609,0.561,0.515,1.08,1.23,1.09,1.16,0.936,0.888,0.887,0.942,0.928,0.584
NCI-H1703,,,,,,,,,,,1.02,0.947,1.25,0.87,0.532,0.786,0.493,1.11,0.488,0.747
